Reference: ChEMBL document CHEMBL2440110, “Synthesis of azide derivative and discovery of glyoxalase pathway inhibitor against pathogenic bacteria” (Bioorg Med Chem Lett, 2013)
Values after ≈ are worked out from the molar mass of the structure shown.

Key:
[1] = system: Burkholderia thailandensis; test: Antibacterial activity against Burkholderia thailandensis; type: functional
Staphylococcus aureus = test: Antibacterial activity against Staphylococcus aureus after 24 hrs by Alamar blue assay; type: functional
PBMC = test: Cytotoxicity against PBMC (unknown origin) at 0.05 mM after 8 hrs by MTT assay; type: cell-based; settings: 50 µM
[2] = system: Mycolicibacterium smegmatis; test: Antibacterial activity against Mycobacterium smegmatis; type: functional

Compound | MIC90 [1] [µg/mL] | MIC90 (Staphylococcus aureus) [µg/mL] | Activity (PBMC) | MIC90 [2] [µg/mL]
O=C(O)CNC(=O)C(CS)NC(=O)CCC(NC(=O)OCc1ccccc1)C(=O)O (stereo unspecified) | 12.5 (≈ 28.3 µM) | 20 (≈ 45.3 µM) | Non-toxic | 
COC(=O)[C@@H](N=[N+]=[N-])[C@@H](OC(=O)CNC(=O)C(CS)NC(=O)CCC(NC(=O)OCc1ccccc1)C(=O)O)C(=O)OC (stereo partly specified) |  | 5 (≈ 7.98 µM) | Non-toxic | 6 (≈ 9.58 µM)
